Tested on: human alpha 1b adrenergic receptor
Experiment: Selective Binding Assay, alpha 1b (competition with [125I]-HEAT)
Conditions: alpha 1a versus alpha 1b
Experimental: Membranes prepared from stably transfected human alpha 1d and alpha 1b cell lines (ATCC […] and CRL 11139, respectively) were used to identify compounds that selectively bind to the human alpha 1a adrenergic receptor. These competition binding) reactions (total volume=200 μl) contained 50 mM Tris-HCl pH. 7.4, 5 mM EDTA, 150 mM NaCl, 100 pM [^125 I]-HEAT, membranes prepared from cell lines transfected with the respective alpha 1 subtype expression plasmid and increasing amounts of unlabeled ligand. Reactions were incubated at room temperature for one hour with shaking. Reactions were filtered onto Whatman GF/C glass fiber filters with a Inotec 96 well cell harvester. Filters were washed three times with ice cold buffer and bound radioactivity was determined (Ki).

COC[C@@H]1OC(=O)N(C(=O)NCCCN2CCC(c3ccccc3C#N)CC2)[C@H]1c1ccc(F)c(F)c1 [Example 11, (4S,5R)-4-(3,4-Difluorophenyl)-5-methoxymethyl-2-oxo-oxazolidine-3-carboxylic acid {3-[4-(2-cyanophenyl)piperidin-1-yl]propyl}amide]
selectivity in binding to alpha 1a receptors versus alpha 1b receptors: about 184 fold

COC[C@@H]1OC(=O)N(C(=O)NCCCN2CCC(c3ccc(F)cc3C#N)CC2)[C@H]1c1ccc(F)c(F)c1 [Example 13, (4S,5R)-4-(3,4-Difluorophenyl)-5-methoxymethyl-2-oxo-oxazolidine-3-carboxylic acid {3-[4-(2-cyano-4-fluorophenyl)piperidin-1-yl]propyl}amide]
selectivity in binding to alpha 1a receptors versus alpha 1b receptors: about 453 fold

— patent US6228870A, “Oxazolidinones useful as alpha 1a adrenoceptor antagonists” (Merck & Co., Inc., priority 1999, dated 2001)
